We go through 33 molecules from ChEMBL document CHEMBL1156143, “Structure-activity relationship studies of chalcone leading to 3-hydroxy-4,3',4',5'-tetramethoxychalcone and its analogues as potent nuclear factor kappaB inhibitors and their anticancer activities” (J Med Chem, 2009).

Molecules are shown by their SMILES. Active and inactive are the calls of the source. The rule behind the calls is not given here. Where only a bound is given, the exact number is not on record here.

Series [1] can be described thus: Inhibition of TNFalpha induced NF-kappaB activation in human A549 cells by luciferase reporter gene assay. In kind it is cell-based. (In general: In a reporter assay the amount or activity of a reporter protein is the signal.)
Series [2] concerns NCI-H2009. Put plainly: Cytotoxicity against human NCI-H2009 cells after 48 hrs by fluorescence assay. Format: functional. Conditions: NCI-H2009, 48 h.
Another series concerns A549. Put plainly: Cytotoxicity against human A549 cells after 48 hrs by fluorescence assay. In kind it is functional. The note with it: A549, 48 h.
Series [3] relates to Mus musculus. The series is described as follows: Toxicity in SCID mouse xenografted with human NCI-H2009 cells at 1 mg/day, ip treated 6 days in a week for 5 weeks. In kind it is organism-based. The note with it: in vivo.
The subject of series [4] is Mus musculus. The series is described as follows: Toxicity in SCID mouse xenografted with human NCI-H2009 cells assessed as increase in body weight at 1 mg/day, ip treated 6 days in a week for 5 weeks. In kind it is organism-based. The note with it: in vivo.
The target of series [5] is T1, Interleukin-1 receptor-associated kinase 4 (Homo sapiens) (UniProt Q9NWZ3).
T1 sequence (whole entry): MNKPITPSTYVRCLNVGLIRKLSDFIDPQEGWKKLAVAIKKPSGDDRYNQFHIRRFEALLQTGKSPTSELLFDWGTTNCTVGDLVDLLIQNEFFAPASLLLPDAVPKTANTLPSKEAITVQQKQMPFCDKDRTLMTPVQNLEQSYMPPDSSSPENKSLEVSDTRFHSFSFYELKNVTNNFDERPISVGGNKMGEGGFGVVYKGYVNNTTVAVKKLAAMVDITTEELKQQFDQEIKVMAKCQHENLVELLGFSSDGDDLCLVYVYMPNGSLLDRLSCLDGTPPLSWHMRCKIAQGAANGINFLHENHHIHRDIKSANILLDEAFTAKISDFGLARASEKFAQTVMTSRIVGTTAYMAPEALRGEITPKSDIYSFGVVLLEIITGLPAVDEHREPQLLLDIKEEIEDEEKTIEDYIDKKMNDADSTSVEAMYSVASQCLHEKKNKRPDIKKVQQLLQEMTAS
The series is described as follows: Inhibition of IRAK4 at 10 uM.

The target in series [6] is T2, Inhibitor of nuclear factor kappa-B kinase subunit alpha (Homo sapiens) (UniProt O15111).
T2 sequence (whole entry): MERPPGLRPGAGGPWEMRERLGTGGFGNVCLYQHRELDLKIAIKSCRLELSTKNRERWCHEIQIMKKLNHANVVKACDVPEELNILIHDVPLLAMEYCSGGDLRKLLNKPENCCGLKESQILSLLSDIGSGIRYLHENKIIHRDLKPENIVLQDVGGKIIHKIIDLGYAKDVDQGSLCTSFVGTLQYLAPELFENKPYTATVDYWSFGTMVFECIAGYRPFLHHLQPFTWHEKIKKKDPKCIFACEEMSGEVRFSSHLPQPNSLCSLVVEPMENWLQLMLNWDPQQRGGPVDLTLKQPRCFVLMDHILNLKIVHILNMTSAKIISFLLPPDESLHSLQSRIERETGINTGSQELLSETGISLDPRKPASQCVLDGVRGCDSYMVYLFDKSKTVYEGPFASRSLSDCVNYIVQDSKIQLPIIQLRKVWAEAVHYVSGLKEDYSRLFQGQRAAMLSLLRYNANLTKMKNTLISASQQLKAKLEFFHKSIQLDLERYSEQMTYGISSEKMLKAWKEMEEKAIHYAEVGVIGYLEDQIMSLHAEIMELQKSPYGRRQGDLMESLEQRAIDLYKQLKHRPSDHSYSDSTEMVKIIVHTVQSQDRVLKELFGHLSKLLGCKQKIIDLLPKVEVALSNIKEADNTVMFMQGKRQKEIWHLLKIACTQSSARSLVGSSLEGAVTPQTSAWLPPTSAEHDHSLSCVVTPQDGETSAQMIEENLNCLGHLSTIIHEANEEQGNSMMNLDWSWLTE
The series is described as follows: Inhibition of IKKalpha at 10 uM.

Series [7] concerns the target Proto-oncogene tyrosine-protein kinase Src (Homo sapiens) (UniProt P12931). The series is described as follows: Inhibition of c-Src at 10 uM.
For series [8], the system named is Mus musculus. Put plainly: Toxicity in SCID mouse xenografted with human NCI-H2009 cells assessed as necropsy at 1 mg/day, ip treated 6 days in a week for 5 weeks. Format: organism-based. Conditions: in vivo.
Series [9] has as its system NCI-H2009. The series is described as follows: Anticancer activity against human NCI-H2009 cells xenografted in SCID mouse assessed as suppression of tumor growth at 1 mg/day, ip treated 6 days in a week for 5 weeks. In kind it is functional.
Series [10] addresses T3, Inhibitor of nuclear factor kappa-B kinase subunit beta (Homo sapiens) (UniProt O14920).
T3 sequence (whole entry): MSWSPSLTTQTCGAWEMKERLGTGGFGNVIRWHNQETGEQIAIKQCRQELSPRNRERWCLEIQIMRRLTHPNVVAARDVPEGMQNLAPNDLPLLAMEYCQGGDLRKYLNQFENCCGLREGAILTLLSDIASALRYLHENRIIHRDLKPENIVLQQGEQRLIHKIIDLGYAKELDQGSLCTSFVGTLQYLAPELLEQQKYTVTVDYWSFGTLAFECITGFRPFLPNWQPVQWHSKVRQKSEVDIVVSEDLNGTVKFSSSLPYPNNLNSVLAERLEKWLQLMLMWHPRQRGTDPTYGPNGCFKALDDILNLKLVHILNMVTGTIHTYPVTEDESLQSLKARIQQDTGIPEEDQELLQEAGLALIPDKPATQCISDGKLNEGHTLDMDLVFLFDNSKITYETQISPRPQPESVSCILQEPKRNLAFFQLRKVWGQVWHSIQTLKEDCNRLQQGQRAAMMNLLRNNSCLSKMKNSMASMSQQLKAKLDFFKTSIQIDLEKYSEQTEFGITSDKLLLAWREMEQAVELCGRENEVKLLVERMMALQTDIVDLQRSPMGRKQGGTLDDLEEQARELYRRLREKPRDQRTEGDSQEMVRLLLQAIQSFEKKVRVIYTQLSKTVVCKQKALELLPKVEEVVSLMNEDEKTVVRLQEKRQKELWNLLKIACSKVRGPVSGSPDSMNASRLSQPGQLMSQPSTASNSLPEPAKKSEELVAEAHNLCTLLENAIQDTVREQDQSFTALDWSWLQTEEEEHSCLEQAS
Put plainly: Inhibition of IKK-beta at 10 uM.

The target of series [11] is Interleukin-1 receptor-associated kinase 1 (Homo sapiens) (UniProt P51617). The series is described as follows: Inhibition of IRAK1 at 10 uM.
The target in series [12] is Mitogen-activated protein kinase kinase kinase 7 (TAK1) (Homo sapiens) (UniProt O43318). Put plainly: Inhibition of TAK1 at 10 uM.

The IC50 is the concentration that inhibits the measured activity by half. In general, GI50 refers to the concentration that inhibits growth by half. Usually inhibition stands for the relative decrease from the control value, in per cent.

Sequence of Proto-oncogene tyrosine-protein kinase Src (Homo sapiens) (P12931 2-536 limits assumed): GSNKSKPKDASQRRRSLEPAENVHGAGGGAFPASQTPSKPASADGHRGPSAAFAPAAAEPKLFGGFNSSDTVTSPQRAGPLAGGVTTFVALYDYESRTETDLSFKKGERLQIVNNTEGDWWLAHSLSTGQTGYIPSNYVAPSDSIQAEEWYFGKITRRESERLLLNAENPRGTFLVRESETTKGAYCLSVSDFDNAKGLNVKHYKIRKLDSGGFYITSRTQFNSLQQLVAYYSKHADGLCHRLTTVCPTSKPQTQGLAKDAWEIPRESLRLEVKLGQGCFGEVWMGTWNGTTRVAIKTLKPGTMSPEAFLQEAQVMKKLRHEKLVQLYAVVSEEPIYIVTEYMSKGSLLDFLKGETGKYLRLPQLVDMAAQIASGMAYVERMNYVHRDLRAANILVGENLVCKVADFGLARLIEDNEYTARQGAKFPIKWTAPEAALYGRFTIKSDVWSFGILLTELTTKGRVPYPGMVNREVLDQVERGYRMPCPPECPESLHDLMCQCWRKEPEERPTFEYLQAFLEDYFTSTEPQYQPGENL
Sequence of Mitogen-activated protein kinase kinase kinase 7 (TAK1) (Homo sapiens) (O43318 whole entry, looked up): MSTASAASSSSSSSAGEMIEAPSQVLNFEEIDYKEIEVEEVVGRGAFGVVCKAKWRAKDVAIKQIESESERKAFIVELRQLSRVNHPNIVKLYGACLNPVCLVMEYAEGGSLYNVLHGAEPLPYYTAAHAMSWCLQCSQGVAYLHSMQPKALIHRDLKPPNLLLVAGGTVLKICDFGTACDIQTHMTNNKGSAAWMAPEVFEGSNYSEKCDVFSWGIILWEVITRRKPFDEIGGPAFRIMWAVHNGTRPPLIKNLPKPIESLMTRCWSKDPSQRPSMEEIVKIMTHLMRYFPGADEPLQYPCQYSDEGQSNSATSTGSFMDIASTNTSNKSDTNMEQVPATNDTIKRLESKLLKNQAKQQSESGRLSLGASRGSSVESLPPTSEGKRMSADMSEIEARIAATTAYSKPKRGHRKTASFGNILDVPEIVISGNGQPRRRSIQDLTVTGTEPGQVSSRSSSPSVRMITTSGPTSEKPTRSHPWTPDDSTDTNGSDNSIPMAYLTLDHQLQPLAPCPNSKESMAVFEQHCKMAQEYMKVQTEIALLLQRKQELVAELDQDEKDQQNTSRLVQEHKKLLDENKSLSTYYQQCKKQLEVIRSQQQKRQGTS
Sequence of Interleukin-1 receptor-associated kinase 1 (Homo sapiens) (P51617 whole entry, looked up): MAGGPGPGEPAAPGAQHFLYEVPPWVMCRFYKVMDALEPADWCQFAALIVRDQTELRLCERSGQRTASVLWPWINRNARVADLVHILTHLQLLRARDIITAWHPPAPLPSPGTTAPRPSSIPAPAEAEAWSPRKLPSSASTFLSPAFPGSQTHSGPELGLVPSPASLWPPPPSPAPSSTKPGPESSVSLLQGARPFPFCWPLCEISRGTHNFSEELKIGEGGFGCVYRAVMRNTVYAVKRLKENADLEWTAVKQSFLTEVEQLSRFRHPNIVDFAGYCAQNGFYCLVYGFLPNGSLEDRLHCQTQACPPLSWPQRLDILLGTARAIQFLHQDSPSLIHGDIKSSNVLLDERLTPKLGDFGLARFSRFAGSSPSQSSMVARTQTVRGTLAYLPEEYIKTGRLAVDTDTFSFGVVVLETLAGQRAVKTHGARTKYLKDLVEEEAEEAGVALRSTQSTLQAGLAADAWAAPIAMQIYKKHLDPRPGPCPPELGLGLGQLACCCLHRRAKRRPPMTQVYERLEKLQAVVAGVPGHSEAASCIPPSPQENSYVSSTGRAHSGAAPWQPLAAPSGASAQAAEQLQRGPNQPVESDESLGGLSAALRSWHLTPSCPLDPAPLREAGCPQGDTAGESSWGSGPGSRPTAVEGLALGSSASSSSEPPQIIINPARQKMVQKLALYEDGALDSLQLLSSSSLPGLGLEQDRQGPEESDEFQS

The molecule `COc1cc(O)c(C(=O)/C=C/c2ccc(Cl)cc2)c(OC)c1` came in with an IC50 in [1] of over 20 µM.
`COc1ccc(/C=C/C(=O)c2cc(OC)c(O)c(OC)c2)cc1O` came in with an IC50 in [1] of 14.7 µM. Further, the values for the 50% growth inhibitory concentration (GI50) with NCI-H2009 [2] and in the series on A549 were 7.5 µM and 4 µM, respectively.
`COc1cc(C(=O)/C=C/c2cccc(O)c2)cc(OC)c1OC` showed an IC50 in series [1] of 2.3 µM. The results for the GI50 with NCI-H2009 [2] and in the series on A549 were 4.2 µM and 1.7 µM, respectively.
For the molecule `COc1ccc(/C=C/C(=O)c2ccc(OC)c(OC)c2)cc1O`, half-maximal inhibition in series [1] (IC50) was put at 8 µM. Besides, the GI50 in the series with NCI-H2009 [2] was 4.6 µM; in the series on A549, 5.2 µM.
Take `COc1cc(C(=O)/C=C/c2ccc(O)c(O)c2)cc(OC)c1OC`: inhibition in series [1] was half-maximal at 1.9 µM (IC50). Also, the concentration for 50% growth inhibition (GI50) turned out to be 1.1 µM with NCI-H2009 [2] and 2.6 µM with A549.
For the molecule `CCCOc1ccc(/C=C/C(=O)c2c(O)cc(OC)cc2OC)cc1`, the IC50 in [1] is over 20 µM.
Regarding `COc1cc(O)c(C(=O)/C=C/c2cccc(C)c2)c(OC)c1`, the IC50 in series [1] was found to be 17 µM.
`COc1ccc(/C=C/C(=O)c2cc(OC)c(OC)c(OC)c2)cc1OCCN` registered an IC50 in series [1] of 5.9 µM. Besides, the GI50 was determined as 3.6 µM in the series with NCI-H2009 [2] and 5.6 µM with A549.
Regarding `O=C(/C=C/c1ccccc1)c1ccc(F)c(F)c1`, in series [1], the IC50 is over 20 µM.
In [1], `COc1cc(O)c(C(=O)/C=C/c2ccc(OC)c(O)c2)c(OC)c1` came in with an IC50 of over 20 µM.
Consider `COc1cc(C(=O)/C=C/c2ccccc2)cc(OC)c1OC`, for which, in series [1], the IC50 amounted to 8.9 µM. In addition, the GI50 with NCI-H2009 [2] is 6.6 µM; with A549, 8.8 µM.
In [1], `O=C(/C=C/c1ccccc1)c1ccccc1O` [2'-HYDROXYCHALCONE] yielded an IC50 of over 20 µM.
Same read-out and setting: with `COc1cc(O)c(C(=O)/C=C/c2ccc(OC)c(C)c2)c(OC)c1` the figure was over 20 µM; with `O=C(/C=C/c1ccc(O)cc1)c1ccccc1` [4-HYDROXYCHALCONE], over 20 µM.
On the same count and under the same terms, for `O=C(/C=C/c1ccccc1)c1ccc(F)cc1` the value was over 20 µM; for `O=C(/C=C/c1ccc(O)c(O)c1)c1ccc(O)cc1O` [BUTEIN], over 20 µM.
For `COc1ccc(/C=C/C(=O)c2cc(OC)c(OC)c(OC)c2)cc1`, half-maximal inhibition in series [1] (IC50) required 19.3 µM. In addition, the GI50 in the series on NCI-H2009 [2] came out at 8.4 µM; in the series on A549, 12.4 µM.
The molecule `COc1ccc(/C=C/C(=O)c2c(O)cc(OC)cc2OC)cc1` [FLAVOKAWAIN A] gave an IC50 in series [1] of over 20 µM.
In [1], `O=C(/C=C/c1ccc(O)cc1)c1ccc(O)cc1O` [ISOLIQUIRITIGENIN] displayed an IC50 of over 20 µM.
On the same count and under the same terms, for `O=C(/C=C/c1ccccc1)c1ccc(C(F)(F)F)cc1` the value was over 20 µM.
Same read-out and setting: for `Cc1ccc(C(=O)/C=C/c2ccccc2)cc1` the value was over 20 µM.
The same measure, in the same setting: for `COc1cc(O)c(C(=O)/C=C/c2cccc(Br)c2)c(OC)c1` the value was 12.3 µM.
Take `COc1ccc(/C=C/C(=O)c2cc(OC)c(OC)c(OC)c2)cc1O`: the Activity entry with Mus musculus [3] is given as “Non-toxic”; in the series with Mus musculus [4] it was “Non-toxic”; in the series on Mus musculus [8], “Non-toxic”; in the series with NCI-H2009 [9] it was 57%. Further, the inhibition in [5] worked out at 41%; in series [10], 46%. Besides, the inhibition entry in [6], in [7], in [11] and in [12] was “inactive” throughout. This molecule also registered an IC50 in [1] of 5.1 µM. The GI50 in the series on NCI-H2009 [2] came out at 5.2 µM; in the series on A549, 2.1 µM.
Regarding `COc1ccc(CCC(=O)c2cc(OC)c(OC)c(OC)c2)cc1O`, the IC50 in series [1] was over 20 µM. Also, the GI50 in the series with NCI-H2009 [2] amounted to 47 µM; in the series with A549, 17.6 µM.
Regarding `COc1cc(O)c(C(=O)/C=C/c2ccccc2Br)c(OC)c1`, the half-maximal inhibitory concentration (IC50) in series [1] was over 20 µM.
The same measure, in the same setting: with `COc1cc(O)c(C(=O)/C=C/c2cc(OC)c(OC)c(OC)c2)c(OC)c1` the figure was over 20 µM.
As to `COc1cc(OC)cc(C(=O)/C=C/c2ccc(OC)c(O)c2)c1`, half-maximal inhibition in series [1] (IC50) was put at 8.1 µM. The GI50 was 2.3 µM with NCI-H2009 [2] and 3.3 µM in the series with A549.
The molecule `COc1cc(O)c(C(=O)/C=C/c2ccc(F)cc2)c(OC)c1` came in with a 50% inhibitory concentration (IC50) in series [1] of over 20 µM.
For `COc1cc(C(=O)/C=C/c2ccc(O)cc2)cc(OC)c1OC`, the IC50 in series [1] was found to be 11.6 µM. Also, the results for the 50% growth inhibitory concentration (GI50) in the series with NCI-H2009 [2] and with A549 were 4.5 µM and 8.5 µM, respectively.
Molecule `COc1cc(O)c(C(=O)/C=C/c2ccccc2)c(OC)c1` [FLAVOKAWAIN B] showed an IC50 in series [1] of over 20 µM.
Same read-out and setting: with `O=C(/C=C/c1ccccc1)c1ccccc1` [CHALCONE] the figure was over 20 µM.
For the molecule `COc1ccc(/C=C/C(=O)c2cc(OC)c(OC)c(OC)c2)cc1OCCO`, the 50% inhibitory concentration (IC50) in series [1] amounted to 9.1 µM. In addition, the GI50 with NCI-H2009 [2] was found to be 3.3 µM; in the series on A549 it was 4.7 µM.
`COc1cc(O)c(C(=O)/C=C/c2ccccc2C)c(OC)c1`: the IC50 in series [1] is over 20 µM.
